Reference: paper PMC11509018, “Evaluation of the Role of Tanshinone I in an In Vitro System of Charcot-Marie-Tooth Disease Type 2N” (International Journal of Molecular Sciences, 2024)

Target: T1, AlaRS R326W binding to GST-Nrp1 b1 (Homo sapiens, UniProt P49588, R326W)
T1 construct: made in house; host or cells: E. coli BL21 (DE3), pET-21a for AlaRS
T1 sequence (P49588 1-968 R326W): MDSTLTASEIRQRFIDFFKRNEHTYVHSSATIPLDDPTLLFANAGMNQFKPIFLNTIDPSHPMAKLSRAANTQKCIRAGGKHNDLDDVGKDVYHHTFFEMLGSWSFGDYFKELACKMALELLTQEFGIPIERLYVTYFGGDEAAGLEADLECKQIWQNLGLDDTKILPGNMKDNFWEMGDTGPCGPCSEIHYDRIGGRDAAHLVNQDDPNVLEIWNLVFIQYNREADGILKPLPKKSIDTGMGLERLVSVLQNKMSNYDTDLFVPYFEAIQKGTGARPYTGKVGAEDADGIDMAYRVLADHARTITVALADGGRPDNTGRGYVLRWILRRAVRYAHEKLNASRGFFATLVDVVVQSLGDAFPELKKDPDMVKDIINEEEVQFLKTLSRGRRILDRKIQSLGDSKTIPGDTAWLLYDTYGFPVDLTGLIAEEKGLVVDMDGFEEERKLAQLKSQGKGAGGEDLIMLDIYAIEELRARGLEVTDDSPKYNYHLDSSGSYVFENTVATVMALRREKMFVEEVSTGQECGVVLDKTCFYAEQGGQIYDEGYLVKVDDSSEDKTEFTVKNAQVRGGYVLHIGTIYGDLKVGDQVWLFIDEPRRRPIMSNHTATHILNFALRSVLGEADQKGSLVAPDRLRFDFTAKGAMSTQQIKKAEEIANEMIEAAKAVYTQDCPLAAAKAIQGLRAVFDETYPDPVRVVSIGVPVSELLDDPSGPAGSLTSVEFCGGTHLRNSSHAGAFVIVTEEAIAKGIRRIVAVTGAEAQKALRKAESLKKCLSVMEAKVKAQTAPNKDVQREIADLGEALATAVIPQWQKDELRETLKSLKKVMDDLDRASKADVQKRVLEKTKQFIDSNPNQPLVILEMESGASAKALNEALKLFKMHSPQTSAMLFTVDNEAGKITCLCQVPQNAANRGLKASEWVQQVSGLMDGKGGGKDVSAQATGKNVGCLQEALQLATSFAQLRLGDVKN
Assay: GST pull down assay
Conditions: 20 µM Tanshinone I, ImageJ, average of three repeats
Description: To further investigate whether Tanshinone I-induced conformational changes in AlaRS CMT mutants affect their interaction with Nrp1, Co-IP experiments were performed in cells treated with Tanshinone I. By comparing Co-IP results obtained before and after treatment, we assessed the influence of the drug on the binding strength and mode between the AlaRS CMT mutants and Nrp1. […] To confirm the direct effect of Tanshinone I on the interaction between AlaRS CMT mutants and Nrp1, pull-down experiments were performed. […] Given that the interaction between AlaRS mutants and Nrp1 is associated with disease progression in CMT, the ability of Tanshinone I to disrupt this binding highlights its potential to intervene in the pathogenic mechanisms of these diseases.
Figure 7 The impact of Tanshinone I on the interaction between AlaRS mutants and Nrp1. (A) Co-IP assays were conducted to assess the binding between HA-AlaRS mutants and Nrp1, both with and without treatment with 20 µM Tanshinone I for 24 h. […] (C) Pull down assay was performed to detect the binding between AlaRS mutants and GST-Nrp1 b1 with or without 20 µM Tanshinone I. (D) Relative quantification statistics of the AlaRS mutants pulled down from the GST pull down experiments after Tanshinone I treatment were performed using ImageJ. (E) The cell viability of 293T and NSC34 cells treated with different concentrations of Tanshinone I was assessed using the CCK-8 assay over a 24 h period. TEXT PRINTED IN THE PICTURE: (B) Tanshinone I: Mean density band (N71Y): 0.60; Mean density band (G102R): 0.53; Mean density band (R326W): 0.50; Mean density band (R329H): 0.50; Mean density band (E337K): 0.62 | (D) Tanshinone I: Mean density band (N71Y): 0.82; Mean density band (G102R): 0.76; Mean density band (R326W): 0.84; Mean density band (R329H): 0.84; Mean density band (E337K): 0.90
To detect the direct interactions between the mutant proteins and Nrp1 in vitro, we performed a Glutathione S-transferase (GST) pull-down assay. AlaRS mutants fused with 6 × His were purified with Ni-NTA beads, followed by chromatography on a HiTrap Q HP column. Nrp1 b1 fragments fused with GST were purified with Glutathione Beads (#SA008100, Smart-Lifesciences, Changzhou, China). For GST pull-down assays, 1000 μg of each GST-fused Nrp1 b1 fragment was mixed with 200 μg of 6 × His-tagged fusion protein in binding buffer (50 mM Tris-HCl pH 7.5, 20 mM NaCl, 5% glycerol, 5 mM DTT with 0.1% BSA) at 4 °C overnight. The mixture was next incubated with 30 μL glutathione beads at 4 °C with constant rotation for 2–4 h. Subsequently, the bead/protein complex was washed three times, and eluted with 30 μL 2 × SDS sample buffer. The samples were then subjected to SDS-PAGE analysis. The experiment was repeated three times.

Cc1coc2c1C(=O)C(=O)c1c-2ccc2c(C)cccc12 [Tanshinone I]
Mean density band (R326W), relative quantification of AlaRS mutant pulled down: 0.84
